{"source": "patent US9073963B2", "about": "(Universite De Montreal, priority 2003, dated 2015)", "key": {"FP receptor [1]": {"test_system": "FP receptor", "settings": "cited from earlier work"}, "FP receptor [2]": {"target": "T1, FP receptor (Sus scrofa, UniProt C6GAG8)", "T1 construct": "the porcine eyecup model, an ex vivo assay of vascular constriction in porcine retinas; from tissue; host or cells: retinal microvessels in eyecups of newborn pigs pre-treated with ibuprofen", "T1 sequence (C6GAG8 1-362)": "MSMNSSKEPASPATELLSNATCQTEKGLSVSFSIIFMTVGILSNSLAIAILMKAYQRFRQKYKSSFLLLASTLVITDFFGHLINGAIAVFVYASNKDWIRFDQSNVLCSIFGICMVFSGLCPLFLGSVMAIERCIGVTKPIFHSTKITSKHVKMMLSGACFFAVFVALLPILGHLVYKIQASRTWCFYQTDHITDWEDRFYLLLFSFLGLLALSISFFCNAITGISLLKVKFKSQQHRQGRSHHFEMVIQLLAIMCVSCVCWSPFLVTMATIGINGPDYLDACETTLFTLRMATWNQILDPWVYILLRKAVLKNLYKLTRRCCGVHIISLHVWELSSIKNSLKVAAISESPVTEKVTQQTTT", "experiment": "Porcine retinal (ocular) microvascular contraction to PGF2α, eyecup assay", "settings": "for % Inhibition: 100 nM PGF2α, compound at 100 μM", "experimental": "(§1) The preparations were allowed to stabilize for 30 min.\nPercent (%) inhibition denotes porcine ocular microvessel contraction in response to 100 nM PGF2α in the presence of 0.1 mM peptide relative to that in the absence of the peptide, expressed as percentage."}, "CD-1 mice": {"test_system": "CD-1 mice", "experiment": "Endotoxin (E. coli LPS) model of mouse preterm labor", "method": "Timed-pregnant CD-1 mice (mean gestation was 19.2 days) were purchased and at day 17, alzet pumps containing THG113 in saline were surgically implanted on the back of the animals. These pumps continuously deliver the inhibitor at 1 mg/day. E. coli lipopolysaccharide (LPS) (50 μg i. p. twice at 3 h interval) was injected on day 15.\nE. coli LPS (50 μg twice three hours apart, i.p) was administered to CD-1 mice (average weight: 50 g) at gestation day 15. Four hours after LPS was administered, alzet osmotic pumps that delivered 0.1, 0.4 or 0.8 mg/Kg/day of the drug were surgically implanted on the backs of the animals. Normal gestation in this strain is 19.2 days.\nE. coli LPS (50 μg twice three hours apart, i.p) was administered to CD-1 mice at gestation day 15. Alzet osmotic pumps that delivered 0.1 mg/Kg/day of the drug were surgically implanted on the backs of the animals. Normal gestation in this strain is 19.2 days."}, "[3]": {"test_system": "TP, EP1, angiotensin AT1, endothelin receptor, alpha adrenergic receptors", "experiment": "Specificity in porcine ocular microvessel contractility assays, agonists of other GPCRs", "settings": "1 μM peptide"}, "myometrial strips [4]": {"test_system": "myometrial strips", "experiment": "Contractility of bovine myometrial strips"}, "[5]": {"test_system": "uterine strips obtained from recently-delivered mice", "experiment": "Contractility of mouse uterine (myometrial) strips after delivery, organ bath", "experimental": "Myometrial strips (1 cm) were dissected from pregnant mice immediately after delivery (when the uterus is still non-quiescent) and suspended in organ baths containing 10 ml of KREB's buffer bubbled with 90% oxygen. Contractile responses were recorded using pressure transducers connected to a Gould polygraph."}, "myometrial strips [6]": {"test_system": "myometrial strips", "experiment": "Contractility of ovine myometrial strips"}, "FP receptor [7]": {"target": "T1, FP receptor", "experiment": "Porcine retinal (ocular) microvascular contraction to PGF2α, eyecup assay"}, "human FP receptor [8]": {"target": "T2, human FP receptor (Homo sapiens, UniProt P43088)", "T2 construct": "expressed in transfected cells; host or cells: HEK293 (FP/293)", "T2 sequence (P43088 whole entry)": "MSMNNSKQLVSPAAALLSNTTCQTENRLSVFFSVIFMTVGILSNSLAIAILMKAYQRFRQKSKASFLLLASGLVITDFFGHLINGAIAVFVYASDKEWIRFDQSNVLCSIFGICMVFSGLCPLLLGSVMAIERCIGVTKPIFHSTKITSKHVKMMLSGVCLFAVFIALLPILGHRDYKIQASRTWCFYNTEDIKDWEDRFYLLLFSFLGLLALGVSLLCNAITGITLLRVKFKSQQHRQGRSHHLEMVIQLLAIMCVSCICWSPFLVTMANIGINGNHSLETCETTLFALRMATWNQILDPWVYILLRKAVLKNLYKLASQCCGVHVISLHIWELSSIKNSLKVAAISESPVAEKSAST", "experiment": "Displacement of bound [3H]PGF2α in FP/293 whole cell assay", "assay_type": "binding", "settings": "FP/293 cells", "description": "[…] Biophys. Acta 28, 251(3):363-369). […] The radioactivity on the filters was counted by scintillation spectrophotometry. For a detailed method of ligand binding and displacement, see Li at al. (1996). […] Using cloned FP/293 cells in binding assays (see Li et al. for a method of ligand displacement assay), the specific binding of THG113 to FP protein was investigated."}, "Urotensin": {"test_system": "Urotensin", "experiment": "Porcine microvascular contraction to urotensin (selectivity)", "settings": "agonist Urotensin 10^−6M; 0.1 mM THG113", "experimental": "as §1"}, "human FP receptor [9]": {"target": "T2, human FP receptor", "experiment": "Specific binding of [125I]-THG113 to FP/293 cells versus parent HEK293 cells", "settings": "10^5 cells, 10^6 cpm, 1 h", "experimental": "[^125I]-THG113 was produced by labeling tyrosine residue with [^125I] using the lactoperoxidase method (Thorell et al. 1971 Biochim. Biophys. Acta 28, 251(3):363-369). HEK293 cells ectopically expressing cloned human FP receptor, FP/293, (10^5) were incubated with [^125I]-THG113 (10^6 cpm) for 1 h; bound and unbound ligands were separated by filtration on glass fibre filters. The radioactivity on the filters was counted by scintillation spectrophotometry. For a detailed method of ligand binding and displacement, see Li at al. (1996). […] Using cloned FP/293 cells in binding assays (see Li et al. for a method of ligand displacement assay), the specific binding of THG113 to FP protein was investigated."}, "[10]": {"test_system": "acetylcholine (uncharacterized subtypes)", "experiment": "Porcine microvascular contraction to acetylcholine (selectivity)", "settings": "agonist Acetylcholine 10^−6M; 0.1 mM THG113", "experimental": "as §1"}, "C-PAF": {"test_system": "C-PAF", "settings": "0.1 mM THG113", "experimental": "To prepare eyecups, a circular incision was made 3-4 mm posterior to ora serrata to remove the […] and vitreous body with minimal handling of the retina. The remaining eyecup was fixed with pins to a wax base in a 20 ml tissue bath containing 20 ml of Kreb's buffer (pH 7.35-7.45) and equilibrated with 21% oxygen and 5% carbon dioxide at 37° C. The preparations were allowed to stabilize for 30 min.\nThe outer vessel diameter was recorded with a video camera mounted on a dissecting microscope (Zeiss M 400) and the responses were quantified by a digital image analyzer (Sigma Scan Software, Jandel Scientific, Corte Madera, Calif.). Vascular diameter was recorded before and 5 min following the topical application of the agonist."}, "human FP receptor [11]": {"target": "T2, human FP receptor", "experiment": "Phosphoinositide hydrolysis in FP/293 cells", "assay_type": "cell-based", "settings": "in the presence of 100 nM PGF2α, 30 min", "description": "The phosphoinositides were collected by anion exchange chromatography with 1 M ammonium formate/0.1 N formic acid."}, "SR Ca^2+ ATPase": {"test_system": "SR Ca^2+ ATPase", "experiment": "Porcine microvascular contraction to BHQ (intracellular Ca2+ dynamics control)", "settings": "BHQ 10^−6M; 0.1 mM THG113", "experimental": "as §1"}}, "note": "Counter-ions that a name gives are not always drawn. Like-named read-outs stand apart in the source and are kept apart here. Where a SMILES comes first, the peptide text is derived from it. [ ]: non-standard residue; d: D form. dCit = NC(=O)NCCC[C@@H](N)C(=O)O", "data": [{"compound": "O=C(O)CCC/C=C\\C[C@@H]1[C@@H](/C=C/[C@H](O)C2Cc3ccccc3C2)[C@@H](F)C[C@@H]1O", "note": "[AL8810]", "values": [{"measurement": "activity at FP receptor", "setting": "FP receptor [1]", "value": "weak partial agonist"}]}, {"compound": "N=C(N)NCCC[C@H](NC(=O)[C@@H]1CC[C@@H]2CC[C@H](NC(=O)Cc3ccccc3)C(=O)N21)C(=O)N[C@@H](CCc1ccccc1)CC(=O)O", "note": "[Compound 48, (3S,6S,9S)-2-oxo-3-phenylacetamido-1-azabicyclo[4.3.0]nonane-9-carboxyl-L-argininyl-(3′S)-3′-amino-5′-phenylpentanoic acid trifluoroacetate]", "values": [{"measurement": "IC50", "setting": "FP receptor [2]", "value": 3.5, "unit": "nM"}]}, {"compound": "N=C(N)NCCC[C@H](NC(=O)[C@@H]1CC[C@@H]2CC[C@H](NC(=O)Cc3ccccc3)C(=O)N21)C(=O)N[C@H](CC(=O)O)Cc1ccccc1", "note": "[Compound 47, (3S,6S,9S)-2-oxo-3-phenylacetamido-1-azabicyclo[4.3.0]nonane-9-carboxyl-L-argininyl-(3′S)-3′-amino-4′-phenylbutanoic acid trifluoroacetate]", "values": [{"measurement": "IC50", "setting": "FP receptor [2]", "value": 1.6, "unit": "nM"}, {"measurement": "animals delivered within the first 15 h after endotoxin administration", "setting": "CD-1 mice; 0.1 mg/Kg/day osmotic pump", "value": "Less than 25%"}]}, {"compound": "CC[C@@H](C)[C@@H](N)C(=O)N[C@H](CC(C)C)C(=O)NCC(=O)N[C@H](Cc1c[nH]cn1)C(=O)N[C@H](CCCNC(N)=O)C(=O)N[C@H](CC(=O)O)C(=O)N[C@H](Cc1ccc(O)cc1)C(=O)N[C@H](CCCCN)C(=O)O", "note": "[Compound 32] (H-[dI][dL]G[dH][dCit][dD][dY][dK]-OH; N-terminus and C-terminus assumed)", "values": [{"measurement": "vasomotor responses produced by agonists of other GPCRs, including TP and EP1", "setting": "[3]", "value": "did not affect the vasomotor responses"}, {"measurement": "reduction of uterine contractile responses", "setting": "myometrial strips [4]", "value": "Reductions of similar magnitude"}, {"measurement": "uterine contractile responses (contraction duration and mean force of contraction)", "setting": "[5]; induced by 1 μM PGF2α", "value": "dose-dependent reduction"}, {"measurement": "reduction of uterine contractile responses", "setting": "myometrial strips [6]", "value": "Reductions of similar magnitude"}, {"measurement": "selectivity for FP receptor", "setting": "FP receptor [7]; 1 μM peptide", "value": "selective inhibitor of FP receptor"}, {"measurement": "animals delivered within 15 h after LPS administration", "setting": "CD-1 mice; 0.1 mg (osmotic pump)", "value": "less than 30%"}, {"measurement": "animals delivered at 48 h after LPS administration", "setting": "CD-1 mice; 0.4 mg dose", "value": "50-60%"}, {"measurement": "animals delivered within 15 h after LPS administration", "setting": "CD-1 mice; 0.8 mg (osmotic pump)", "value": "< 15", "unit": "%"}, {"measurement": "animals delivered at 48 h after LPS administration", "setting": "CD-1 mice; 0.8 mg dose", "value": "50-60%"}, {"measurement": "delay in delivery", "setting": "CD-1 mice; 0.1, 0.4 or 0.8 mg/Kg/day", "value": "dose-dependent delay in delivery"}]}, {"compound": "N=C(N)NCCC[C@H](NC(=O)[C@@H]1CC[C@@H]2CC[C@H](NC(=O)Cc3ccccc3)C(=O)N21)C(=O)N[C@@H](Cc1ccccc1)C(=O)O.O=C(O)C(F)(F)F", "note": "[Compound 46, (3S,6S,9S)-2-oxo-3-phenylacetamido-1-azabicyclo[4.3.0]nonane-9-carboxyl-L-argininyl-L-phenylalanine trifluoroacetate]", "values": [{"measurement": "% Inhibition", "setting": "FP receptor [2]", "value": 51.1, "unit": "%"}]}, {"compound": "N=C(N)NCCC[C@H](NC(=O)[C@@H]1C[C@H](Cc2ccccc2)[C@@H]2CC[C@H](NC(=O)C3CCCCC3)C(=O)N12)C(=O)N[C@@H](CC(=O)O)C(=O)NCCC(c1ccccc1)c1ccccc1.O=C(O)C(F)(F)F", "note": "[Compound 34, (3S,6S,7S,9S)-2-oxo-3-cyclohexanecarboxamido-7-benzyl-1-azabicyclo[4.3.0]nonane-9-carboxyl-L-argininyl-L-aspartyl-3′,3′-diphenylpropylamide trifluoroacetate]", "values": [{"measurement": "% Inhibition", "setting": "FP receptor [7]; 100 nM PGF2α, compound at 50 μM", "value": 63.2, "unit": "%"}]}, {"compound": "O=C(CCc1ccc(O)cc1)c1c(O)cc(O)cc1O", "note": "[Phloretin]", "values": [{"measurement": "IC50", "setting": "FP receptor [1]; antagonist of FP receptor", "value": 20000, "unit": "nM"}]}, {"compound": "N=C(N)NCCC[C@H](NC(=O)[C@@H]1CC[C@@H]2CC[C@H](NC(=O)Cc3ccccc3)C(=O)N21)C(=O)N[C@H](CCc1ccccc1)CC(=O)O.O=C(O)C(F)(F)F", "note": "[Compound 49, (3S,6S,9S)-2-oxo-3-phenylacetamido-1-azabicyclo[4.3.0]nonane-9-carboxyl-L-argininyl-(3′R)-3′-amino-5′-phenylpentanoic acid trifluoroacetate]", "values": [{"measurement": "% Inhibition", "setting": "FP receptor [2]", "value": 59.5, "unit": "%"}]}, {"compound": "CCCCC[C@H](O)/C=C/[C@@H]1[C@@H](C/C=C\\CCCC(=O)O)[C@@H](O)C[C@H]1O", "note": "[PGF2α, prostaglandin F2α, reference compound]", "values": [{"measurement": "displacement of [3H]PGF2α binding", "setting": "human FP receptor [8]", "value": "completely displaced"}]}, {"compound": "CC[C@@H](C)[C@@H](N)C(=O)N[C@H](CC(C)C)C(=O)NCC(=O)N[C@H](Cc1c[nH]cn1)C(=O)N[C@H](CCCNC(=N)N)C(=O)N[C@H](CC(=O)O)C(=O)N[C@H](Cc1ccc(O)cc1)C(=O)N[C@H](CCCCN)C(=O)O", "note": "[Compound 1] (H-[dI][dL]G[dH][dR][dD][dY][dK]-OH; N-terminus and C-terminus assumed)", "values": [{"measurement": "% Inhibition", "setting": "Urotensin", "value": "<1", "unit": "%"}, {"measurement": "specific binding of [125I]-THG113 to FP/293 cells relative to parent HEK293 cells", "setting": "human FP receptor [9]", "value": 27, "unit": "fold"}, {"measurement": "% Inhibition", "setting": "[10]", "value": "<1", "unit": "%"}, {"measurement": "time until spontaneous and PGF2α (1 μM)-induced contractile responses were diminished", "setting": "[5]; after addition of 100 μM THG113", "value": "≤ 20", "unit": "min"}, {"measurement": "% Inhibition", "setting": "C-PAF; agonist C-PAF 10^−6M", "value": "<1", "unit": "%"}, {"measurement": "% Inhibition", "setting": "C-PAF; agonist C-PAF 10^−7M", "value": "<1", "unit": "%"}, {"measurement": "inhibition of PGF2α-stimulated phosphoinositide hydrolysis", "setting": "human FP receptor [11]", "value": "dose-dependently inhibited"}, {"measurement": "contractile response to supra-physiological levels of PGF2α", "setting": "FP receptor [2]; 100 μM THG113", "value": "failed to produce contractile response"}, {"measurement": "selectivity of inhibition among GPCR agonists", "setting": "FP receptor [2]; 0.1 mM THG113, 0.1 μM concentration of the agonists", "value": "selective for FP receptor only"}, {"measurement": "% Inhibition", "setting": "SR Ca^2+ ATPase", "value": "<1", "unit": "%"}, {"measurement": "animals with labor delayed past 15 h after LPS", "setting": "CD-1 mice; alzet pump 1 mg/day", "value": 60, "unit": "%"}, {"measurement": "mean time of delivery", "setting": "CD-1 mice; alzet pump 1 mg/day, after LPS", "value": 36, "unit": "h"}, {"measurement": "displacement of [3H]PGF2α binding", "setting": "human FP receptor [8]", "value": "little displacement"}]}]}
